Data reported in ChEMBL document CHEMBL4673254, “Synthesis and Cytotoxicity Studies of Bioactive Benzofurans from Lavandula agustifolia and Modified Synthesis of Ailanthoidol, Homoegonol, and Egonol” (J Nat Prod, 2020).
Calls of active or inactive are those of the source. The rule behind the calls is not given here.

Assays:
MCF7 [1] = assay: Cytotoxicity against human MCF7 cells assessed as reduction in cell viability at 1.25 to 20 uM after 72 hrs by Hoechst 33342 staining based assay; format: functional; conditions: dose 1.25-20 µM
A549 [2] = assay: Cytotoxicity against human A549 cells assessed as reduction in cell viability at 1.25 to 20 uM after 72 hrs by Hoechst 33342 staining based assay; format: functional; conditions: dose 1.25-20 µM
PC-3 [3] = assay: Cytotoxicity against human PC-3 cells assessed as reduction in cell viability at 1.25 to 20 uM after 72 hrs by Hoechst 33342 staining based assay; format: functional; conditions: dose 1.25-20 µM
HepG2 [4] = assay: Cytotoxicity against human HepG2 cells assessed as reduction in cell viability at 1.25 to 20 uM after 72 hrs by Hoechst 33342 staining based assay; format: functional; conditions: dose 1.25-20 µM
Hep 3B2 [5] = assay: Cytotoxicity against human Hep3B cells assessed as reduction in cell viability at 1.25 to 20 uM after 72 hrs by Hoechst 33342 staining based assay; format: functional; conditions: dose 1.25-20 µM
MCF7 [6] = assay: Induction of apoptosis in human MCF7 cells assessed as increase in cleaved PARP level at 6 uM after 72 hrs by Western blot analysis; format: functional, cell-based
A549 [7] = assay: Induction of apoptosis in human A549 cells assessed as increase in cleaved PARP level at 6 uM after 72 hrs by Western blot analysis; format: functional, cell-based
PC-3 [8] = assay: Induction of apoptosis in human PC-3 cells assessed as increase in cleaved PARP level at 6 uM after 72 hrs by Western blot analysis; format: functional, cell-based
HepG2 [9] = assay: Induction of apoptosis in human HepG2 cells assessed as increase in cleaved PARP level at 6 uM after 72 hrs by Western blot analysis; format: functional, cell-based
Hep 3B2 [10] = assay: Induction of apoptosis in human Hep3B cells assessed as increase in cleaved PARP level at 6 uM after 72 hrs by Western blot analysis; format: functional, cell-based
[11] = target: Cellular tumor antigen p53 (Homo sapiens) (UniProt P04637); assay: Activation of P53 in human MCF7 cells assessed as increase in P53 phosphorylation at ser15 residues at 6 uM after 72 hrs by Western blot analysis; format: cell-based; conditions: filed as activator
Cellular tumor antigen p53 (Homo sapiens), sequence (P04637 whole entry, looked up): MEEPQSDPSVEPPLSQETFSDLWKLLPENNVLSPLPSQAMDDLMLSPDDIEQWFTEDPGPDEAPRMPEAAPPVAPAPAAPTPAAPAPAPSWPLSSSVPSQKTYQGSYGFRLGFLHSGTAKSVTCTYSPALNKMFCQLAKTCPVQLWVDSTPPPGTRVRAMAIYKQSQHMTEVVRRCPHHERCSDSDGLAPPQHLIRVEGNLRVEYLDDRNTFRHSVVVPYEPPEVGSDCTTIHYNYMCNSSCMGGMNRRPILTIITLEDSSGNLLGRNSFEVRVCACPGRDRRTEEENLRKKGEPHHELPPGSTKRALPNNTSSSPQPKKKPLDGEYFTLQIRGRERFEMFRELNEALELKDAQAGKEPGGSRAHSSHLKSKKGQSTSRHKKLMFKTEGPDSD

[12] = target: Cellular tumor antigen p53 (Homo sapiens) (UniProt P04637); assay: Activation of P53 in human A549 cells assessed as increase in P53 phosphorylation at ser15 residues at 6 uM after 72 hrs by Western blot analysis; format: cell-based; conditions: filed as activator
[13] = tested on: Cellular tumor antigen p53 (Homo sapiens), P04637 [UNDEFINED MUTATION]; assay: Activation of P53 mutant in human PC-3 cells assessed as increase in P53 phosphorylation at ser15 residues at 6 uM after 72 hrs by Western blot analysis; format: cell-based
Cellular tumor antigen p53 (Homo sapiens), P04637 [UNDEFINED MUTATION], sequence (P04637 whole entry, looked up, change not shown): as the sequence (P04637 whole entry, looked up) above

[14] = tested on: Cellular tumor antigen p53 (Homo sapiens), P04637 [UNDEFINED MUTATION]; assay: Activation of P53 mutant in human Hep3B cells assessed as increase in P53 phosphorylation at ser15 residues at 6 uM after 72 hrs by Western blot analysis; format: cell-based
MCF7 [15] = assay: Induction of apoptosis in human MCF7 cells assessed as increase in P53 protein expression at 6 uM after 72 hrs by Western blot analysis; format: functional, cell-based
A549 [16] = assay: Induction of apoptosis in human A549 cells assessed as increase in P53 protein expression at 6 uM after 72 hrs by Western blot analysis; format: functional, cell-based
HepG2 [17] = assay: Induction of apoptosis in human HepG2 cells assessed as increase in P53 protein expression at 6 uM after 72 hrs by Western blot analysis; format: functional, cell-based
PC-3 [18] = assay: Induction of apoptosis in human PC-3 cells assessed as increase in P53 protein expression at 6 uM after 72 hrs by Western blot analysis; format: functional, cell-based
Hep 3B2 [19] = assay: Induction of apoptosis in human Hep3B cells assessed as increase in P53 protein expression at 6 uM after 72 hrs by Western blot analysis; format: functional, cell-based
[20] = target: Cellular tumor antigen p53 (Homo sapiens) (UniProt P04637); assay: Activation of P53 in human MCF7 cells assessed as increase in p21 protein expression at ser15 residues at 6 uM after 72 hrs by Western blot analysis; format: cell-based; conditions: filed as activator
[21] = target: Cellular tumor antigen p53 (Homo sapiens) (UniProt P04637); assay: Activation of P53 in human A549 cells assessed as increase in p21 protein expression at ser15 residues at 6 uM after 72 hrs by Western blot analysis; format: cell-based; conditions: filed as activator
[22] = target: Cellular tumor antigen p53 (Homo sapiens) (UniProt P04637); assay: Activation of P53 in human HepG2 cells assessed as increase in p21 protein expression at ser15 residues at 6 uM after 72 hrs by Western blot analysis; format: cell-based; conditions: filed as activator
[23] = tested on: Cellular tumor antigen p53 (Homo sapiens), P04637 [UNDEFINED MUTATION]; assay: Activation of P53 mutant in human Hep3B cells assessed as increase in p21 protein expression at ser15 residues at 6 uM after 72 hrs by Western blot analysis; format: cell-based; conditions: filed as activator
[24] = tested on: Cellular tumor antigen p53 (Homo sapiens), P04637 [UNDEFINED MUTATION]; assay: Activation of P53 mutant in human PC-3 cells assessed as increase in p21 protein expression at ser15 residues at 6 uM after 72 hrs by Western blot analysis; format: cell-based; conditions: filed as activator
[25] = Activation of P53 in human HepG2 cells assessed as increase in P53 phosphorylation at ser15 residues at 6 uM after 72 hrs by Western blot analysis; conditions: filed as activator

Activity [11] | Activity [12] | Activity [13] | Activity [14] | Activity [20] | SMILES | Activity (MCF7 [1]) | Activity (A549 [2]) | Activity (PC-3 [3]) | Activity (HepG2 [4]) | Activity (Hep 3B2 [5]) | Activity (MCF7 [6]) | Activity (A549 [7]) | Activity (PC-3 [8]) | Activity (HepG2 [9]) | Activity (Hep 3B2 [10]) | Activity (MCF7 [15]) | Activity (A549 [16]) | Activity (HepG2 [17]) | Activity (PC-3 [18]) | Activity (Hep 3B2 [19]) | also measured
Active | Active | inactive | inactive | Active | COc1cc(CCO)cc2cc(-c3ccc(O)cc3)oc12 | Active | Active | Active | Active | Active | Active | Active | Active | Active | Active | Active | Active | Active | inactive | inactive | Activity [21]: Active; Activity [22]: Active; Activity [23]: Active; Activity [24]: Active; Activity [25]: Active
 |  |  |  |  | COc1ccc(-c2oc3c(OC)cc(CCO)cc3c2C)cc1 | inactive | inactive | inactive | inactive | inactive |  |  |  |  |  |  |  |  |  |  | 
 |  |  |  |  | COc1ccc(-c2cc3cc(CCO)c(OC)cc3o2)cc1 | inactive | inactive | inactive | inactive | inactive |  |  |  |  |  |  |  |  |  |  | 
Active | Active | inactive | inactive | Active | COc1cc2oc(-c3ccc(O)cc3)cc2cc1CCO | Active | Active | Active | Active | Active | Active | Active | Active | Active | Active | Active | Active | Active | inactive | inactive | Activity [21]: Active; Activity [22]: Active; Activity [23]: Active; Activity [24]: Active; Activity [25]: Active
 |  |  |  |  | COc1ccc(-c2cc3cc(CCO)cc(OC)c3o2)cc1 | inactive | inactive | inactive | inactive | inactive |  |  |  |  |  |  |  |  |  |  | 
 |  |  |  |  | COc1cc2oc(-c3ccc(O)cc3)c(C)c2cc1CCO | Active | Active | Active | Active | Active |  |  |  |  |  |  |  |  |  |  | 
Active | Active | inactive | inactive | Active | COc1cc(CCO)cc2c(C)c(-c3ccc(O)cc3)oc12 | Active | Active | Active | Active | Active | Active | Active | Active | Active | Active | Active | Active | Active | inactive | inactive | Activity [21]: Active; Activity [22]: Active; Activity [23]: Active; Activity [24]: Active; Activity [25]: Active
 |  |  |  |  | COc1ccc(-c2oc3cc(OC)c(CCO)cc3c2C)cc1 | inactive | inactive | inactive | inactive | inactive |  |  |  |  |  |  |  |  |  |  | 
